Experimental data from US20030060499A1, “Novel therapeutic method” (priority 1998, published 2003).
Structures can show the parent of a compound that is named as a salt.

Legend:
[1] = test system: putamen dopaminergic function; assay: 18 Fluoro-dopa PET scanning in five year, double-blind, multicentre study of ropinirole versus levodopa; type: in vivo, human; settings: for loss of putamen dopaminergic function (mean percent change): all patients (Hoehn & Yahr I-III), approximately two years between scans, average of both sides of the brain; for loss of putamen dopaminergic function (mean percent change) / decrease in putamen dopaminergic function (mean percent change): 18 Fluoro-dopa PET; for decrease in putamen dopaminergic function (mean percent change): subgroup of patients with Parkinson's disease for less than 2 years
Procedure: In an ongoing five year, double-blind, multicentre study, patients with early Pakinson's disease (Hoehn & Yahr I-III) were randomised to receive either ropinirole or levodopa. Of those enrolled, 37 patients were scanned using 18 Fluoro-dopa PET scanning within the first year and then approximately two years later to measure the gradual decline in basal ganglia dopaminergic function. […] The following endpoints were assessed:
1 Mean percent change in putamen dopaminergic function in all patients (Hoehn & Yahr I-III)
2 Mean percent change in putamen dopaminergic function in Parkinson's disease patients with symptoms present for under two years
3 Mean percent change in putamen dopaminergic function in Parkinson's disease patients with symptoms present for more than two years

[2] = test system: Parkinson's patients; assay: three year, international, multicentre, double-blind comparative clinical trial of ropinirole versus bromocriptine; type: in vivo, human; settings: for patients considered responders (at least a 30% reduction from baseline in total motor examination score on the UPDRS): at the study's completion; for mean improvement in UPDRS motor score: three years
Text: In a three year, international, multicentre, double-blind comparative clinical trial, Parkinson's patients were randomised to receive either ropinirole (n=168) or bromocriptine (n=167). 33% of patients received selegiline concomitantly with either ropinirole or bromocriptine. Of those enrolled, 214 patients completed the study (approximately 39% of patients treated with ropinirole and 33% of patients treated with bromocriptine withdrew from the study). Efficacy was based on the following:
1 Mean Unified Parkinson's Disease Rating Scale (UPDRS) Activities of Daily Living (ADL) score (Part II) at completion
2 Improvement in UPDRS total motor examination score (Part III)
3 Percentage of patients who were considered responders, defined as those with at least a 30% reduction from baseline in total motor examination score on the UPDRS
4 Average combined ADL and motor score at endpoint
5 The percentage of patients who required supplemental levodopa therapy.

[3] = patients who completed the study

| Compound | loss of putamen dopaminergic function (mean percent change) [1] [%] | decrease in putamen dopaminergic function (mean percent change) [1] [%] | patients considered responders (at least a 30% reduction from baseline in total motor examination score on the UPDRS) [2] [%] | mean improvement in UPDRS motor score [2, 3] [%] | incidence of dyskinesias ([2]; three year trial) [%] | patients who required supplemental levodopa ([2]; three year trial) [%] | average improvement in the combined ADL and motor scores versus bromocriptine ([2]; at endpoint, p=0.018) | incidence of dyskinesias ([2]; human, in vivo, 3 years) [%] | mean improvement in UPDRS ADL score versus bromocriptine ([2]; patients who completed the study, p=0.009) | difference between treatment groups in change in putamen dopaminergic function ([1]; patients with Parkinson's disease for more than two years, ropinirole versus levodopa) |
| --- | --- | --- | --- | --- | --- | --- | --- | --- | --- | --- |
| N[C@@H](Cc1ccc(O)c(O)c1)C(=O)O [levodopa] | 18 | 28 | – | – | – | – | – | – | – | – |
| CC(C)C[C@H]1C(=O)N2CCC[C@H]2[C@]2(O)O[C@](NC(=O)[C@@H]3C=C4c5cccc6[nH]c(Br)c(c56)C[C@H]4N(C)C3)(C(C)C)C(=O)N12 [bromocriptine] | – | – | 42 | 22 | 7 | 42 | – | – | – | – |
| CCCN(CCC)CCc1cccc2c1CC(=O)N2 [ropinirole, 4-[2-(di-n-propylamino)ethyl]-1,3-dihydro-2H-indolin-2-one hydrochlorid] | 13 | 14 | 53 | 31 | – | 34 | statistically significantly greater | 8 | statistically significantly mean improvement | no statistically significant difference |
